System: rat testicular cell homogenate
Assay: Incubation of rat testicular homogenate with pregnenolone and extract, capillary gas chromatography of steroids
Format: biochemical
Details: gas capillary analysis
Procedure: To preliminary assess the activity of Eurycoma longifolia, an extract of it was prepared and incubated with rat testicular cell homogenate. After the incubation was completed, the samples were measured using capillary gas chromatography to measure the presence of various hormones. 500 g of the dried pulverized root was boiled exhaustively with 5 L of distilled water for 24 hours. The extract was concentrated to a 40% mass, allowed to cool to room temperature, filtered using a 4 micron filter, then centrifuged at 10,000 rpm for five minutes. Supernatant was collected and freeze-dried yielding yellow brown colored fine powder. Tris/sucrose buffer, PH 7.4 was used as homogenizing buffer and medium for suspending the testicular homogenate. This buffer, consisting of 0.25M sucrose, 0.05M Tris-HCL, 0.025M KCl and 0.005M MgCl2H2O was prepared fresh and kept cool at 4° C. Sprague Dawley albino male rats were sacrificed by stunning followed by cervical dislocation. Testes were removed quickly, pooled and homogenized in Tris/sucrose buffer (10% w/v) using homogenizer. Homogenate was then centrifuged at 1000×g (3000 rpm) for 20 minutes to remove the nuclei and cell debris. Post-nuclei suspension was used for incubation studies; a portion of the suspension was reserved for protein determination. 10 ml of the testes homogenate was first treated with 5 ml ethyl acetate before incubation process. […]

## CC(=O)[C@H]1CC[C@H]2[C@@H]3CC=C4C[C@@H](O)CC[C@]4(C)[C@H]3CC[C@]12C [Prenenolone, Pregnenolone]
16-androstene steroid metabolite (pheromone)
  An α: 1.62
16-androstene steroid metabolites (pheromones)
  An β Andien β: 1.99
